Laboratory results as given in ChEMBL document CHEMBL1201862, “PubChem BioAssay data set” (2004).
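48-hour exposure; five concentrations; linearly interpolated endpoints. Abbreviation: GI50, concentration required for 50% inhibition of growth.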 The source made the active and inactive calls. Cut-off read from the data, not from the text of the source: active = GI50 up to about 1.1 µM and inactive = higher.

Legend:
Test in all cases: NCI-60 cell line screen, 48 h
[1] = tested on: UO-31
[2] = tested on: SN12C
[3] = tested on: SF-268
[4] = tested on: OVCAR-4
[5] = tested on: HT-29
[6] = tested on: SK-MEL-2
[7] = tested on: K562
[8] = tested on: SK-OV-3
[9] = tested on: NCI-H23
[10] = tested on: SW-620
[11] = tested on: RPMI-8226
[12] = tested on: A498
[13] = tested on: SK-MEL-28
[14] = tested on: M14
[15] = tested on: HOP-18
[16] = tested on: SF-539
[17] = tested on: U-251
[18] = tested on: HCT-116

Measured: GI50

CN(C)CCCNc1ccc2ncn3c4ccccc4c(=O)c1c23
inactive: [1] 9.27 µM | [2] 11.5 µM | [3] 7.6 µM | [4] 21.9 µM | [5] 4.88 µM | [6] 13.6 µM | [7] 3.77 µM | [8] 8.59 µM | [9] 12.3 µM | [10] 4.71 µM | [11] 4.71 µM | [12] > 10 µM | [13] 31.6 µM | [14] 9.66 µM | [15] 5.73 µM | [16] 8.73 µM | [17] 11.4 µM | [18] 3.48 µM

Cc1ccc(/N=N/c2c(-c3ccccc3)nn(C(=O)CC(=O)Nc3ccc(Cl)cc3)c2-c2ccccc2)cc1
inactive: [1] 27.7 µM | [2] > 100 µM | [3] 70.5 µM | [4] 77.3 µM | [5] 65.3 µM | [6] 81.8 µM | [7] 42.1 µM | [8] > 100 µM | [9] 44.2 µM | [10] 90.8 µM | [11] 18.8 µM | [12] 31.8 µM | [13] > 100 µM | [14] 65.2 µM | [15] > 100 µM | [16] 58.9 µM | [17] 40 µM | [18] 61.5 µM

CC1c2[nH]c3ccccc3c2CCN1O (configuration not stated)
inactive: [1] 29.4 µM | [2] > 100 µM | [3] > 100 µM | [4] > 100 µM | [5] > 100 µM | [6] > 100 µM | [7] > 100 µM | [8] > 100 µM | [9] > 100 µM | [10] > 100 µM | [11] > 100 µM | [12] > 100 µM | [13] > 100 µM | [14] > 100 µM | [15] > 100 µM | [16] > 100 µM | [17] > 100 µM | [18] > 100 µM

C=C1CCC2C(C)(CO)C(O)CCC2(C)C1C/C=C1/CCOC1=O (configuration not stated)
inactive: [1] > 100 µM | [2] > 100 µM | [4] > 100 µM | [5] > 100 µM | [6] > 100 µM | [7] > 100 µM | [8] > 100 µM | [9] > 100 µM | [10] > 100 µM | [11] > 100 µM | [12] > 100 µM | [14] > 100 µM | [15] > 100 µM | [16] > 100 µM | [17] > 100 µM | [18] > 100 µM

NC(=O)C12CCC1C1CCCCC12N1CCOCC1 (configuration not stated)
inactive: [1] > 100 µM | [2] > 100 µM | [3] > 100 µM | [4] > 100 µM | [5] > 100 µM | [6] > 100 µM | [7] > 100 µM | [8] > 100 µM | [9] > 100 µM | [10] > 100 µM | [11] > 100 µM | [12] > 100 µM | [13] > 100 µM | [14] > 100 µM | [15] > 100 µM | [16] > 100 µM | [17] > 100 µM | [18] > 100 µM

NS(=O)(=O)c1ccc(NC(=O)Cc2nc3ccccc3s2)cc1
inactive: [1] 22.5 µM | [2] 17.2 µM | [3] 16.2 µM | [4] 19.3 µM | [5] 18.3 µM | [6] 14.9 µM | [7] 23.6 µM | [8] 25.7 µM | [9] 15.9 µM | [10] 17.1 µM | [11] 21.3 µM | [12] 21.1 µM | [13] 17.7 µM | [14] 15.7 µM | [15] 17.8 µM | [16] 18.3 µM | [17] 15.2 µM | [18] 16.6 µM

COC(=O)C1Cc2c(n(C)c3ccccc23)C(c2ccccc2)N1 (configuration not stated)
inactive: [1] > 100 µM | [2] > 100 µM | [3] > 100 µM | [4] 50.5 µM | [5] 18.9 µM | [6] 47.6 µM | [7] 47.6 µM | [8] > 100 µM | [9] > 100 µM | [10] > 100 µM | [11] 63.7 µM | [12] 48.4 µM | [13] > 100 µM | [14] > 100 µM | [15] > 100 µM | [16] > 10 µM | [17] 48 µM | [18] 34.4 µM

Cc1cn2c(=O)c3ncn(C4OC(CO)C(O)C4O)c3n(C)c2n1 (configuration not stated)
inactive: [1] > 100 µM | [2] > 100 µM | [3] > 100 µM | [4] > 100 µM | [5] > 100 µM | [6] > 100 µM | [7] > 100 µM | [8] > 100 µM | [9] > 100 µM | [10] > 100 µM | [11] > 100 µM | [12] > 100 µM | [13] > 100 µM | [14] > 100 µM | [15] > 100 µM | [16] > 100 µM | [17] > 100 µM | [18] > 100 µM
